Assay results: US20250369975A1, “METHOD FOR DETECTING TRANSTHYRETIN TETRAMER, AND METHOD FOR EVALUATING STABILITY” (SYSMEX CORPORATION, priority 2024, published 2025)
Where two headings read alike, the source gives them in different places.

Assays:
[1] = Comparative Example 2: 48-hour urea treatment, then sandwich ELISA (TTR 4mer %); assay type: physicochemical, human; conditions: urea 7.2 M, 25° C., Dunnett's test, FIG. 24A
Protocol: The recombinant TTR of the wild-type (WT), the stabilized variant (Ti19M), and the destabilized variant (V30M) as in Example 1 were used as the recombinant TTR. These recombinant TTRs were diluted with 1% BSA/PBS, to prepare a sample containing 16 µg/mL of each recombinant TTR. Sera obtained from patients with atrial fibrillation (n=26), wild-type ATTR patients (n=18), and ATTR patients with destabilized mutation (A36D) (n=2) were diluted 10 times with 1% BSA/PBS, to prepare various serum samples. A calibrator was prepared in the same manner as in Comparative Example 1.
As the detection antibody and the labeling substance, a biotin-labeled antibody solution and an ALP solution were prepared in the same manner as in Comparative Example 1. An anti-TTR antibody solution was prepared as the capture antibody in the same manner as in Comparative Example 1. […]
Each sample was measured by sandwich ELISA in the same manner as in (3.2) of Comparative Example 1. The calibrator was measured in the same manner. A calibration curve was prepared from the measured values of the calibrators, and the TTR level of each sample was acquired with use of the calibration curve. TTR 4 mer % of the sample after the urea treatment was calculated from the following calculation formula, using the TTR levels of the sample after the urea treatment and the sample without the urea treatment. […]

[2] = system: TTR tetramer (recombinant human transthyretin WT, T119M, V30M); assay type: binding; conditions: probe solution 10 μM; recombinant TTR 100 ng/mL; FIG. 14A-D
[3] = molecular target: T1, TTR tetramer (recombinant human transthyretin WT, T119M, V30M) (Homo sapiens, UniProt P02766, T139M); assay type: binding; conditions: probe solution 0.3 μM immobilized; FIG. 16A
T1 construct: purchased AlexoTech T-500-10 (WT); T-515-10 (T119M); T-505-10 (V30M)

[4] = system: TTR tetramer (recombinant human transthyretin WT, T119M, V30M); assay type: binding; conditions: probe solution 0.3 μM immobilized on solid phase; recombinant TTR 100 ng/mL; FIG. 16A-B
[5] = molecular target: T2, TTR tetramer (recombinant human transthyretin WT, T119M, V30M) (Homo sapiens, UniProt P02766, V50M); assay type: binding; conditions: probe solution 0.3 μM immobilized; FIG. 16A
T2 construct: purchased AlexoTech T-500-10 (WT); T-515-10 (T119M); T-505-10 (V30M)

[6] = molecular target: T1, TTR tetramer (recombinant human transthyretin WT, T119M, V30M); assay type: binding; conditions: probe solution 0.2 μM; FIG. 18A
[7] = system: TTR tetramer (recombinant human transthyretin WT, T119M, V30M); assay type: binding; conditions: probe solution 0.2 μM mixed with sample; FIG. 18A-B
[8] = molecular target: T2, TTR tetramer (recombinant human transthyretin WT, T119M, V30M); assay type: binding; conditions: probe solution 0.2 μM; FIG. 18A
[9] = molecular target: T1, TTR tetramer (recombinant human transthyretin WT, T119M, V30M); assay type: binding; conditions: probe solution 10 μM; recombinant TTR 100 ng/mL; FIG. 14A
[10] = molecular target: T2, TTR tetramer (recombinant human transthyretin WT, T119M, V30M); assay type: binding; conditions: probe solution 10 μM; recombinant TTR 100 ng/mL; FIG. 14A

**Q.** Which “TTR 4mer % relative to the sample containing wild-type TTR” value [1] does the source give for transthyretin (V30M) human [Probe V30M] here?
**A.** The value was “significantly lower”.

**Q.** For “transthyretin (T119M) human, recombinant [Probe T119M]”, which “TTR 4mer % relative to the sample containing wild-type TTR” value [1] is on record?
**A.** Its value is “significantly higher”.

**Q.** For biotin-PEG12-thyroxine [Probe C2], which “chemiluminescence signal measured values of WT, T119M and V30M samples versus blank” value [2] is on record?
**A.** Its value is “results similar to those of FIG. 14 A”.

**Q.** What does the source list for `O=C(CCCCC1SCC2NC(=O)NC21)NCCOCCOCCOCCOCCOCCOCCOCCOCCC(=O)Nc1ccc(/C=C/c2cc(Br)c(O)c(Br)c2)cc1` (stereo not shown) [Probe C5, Biotin-PEG8-Stilbene Derivative]?
**A.** chemiluminescence signal measured values of WT, T119M and V30M samples versus blank [2]: results similar to those of FIG. 14 A; signal measured value of T119M sample relative to WT sample [3]: higher than the signal measured value of WT; chemiluminescence signal measured values of WT, T119M and V30M samples versus blank [4]: higher than the signal measured value of the blank; signal measured value of V30M sample relative to WT sample [5]: lower than the signal measured value of WT; signal measured value of T119M sample relative to WT sample [6]: higher than the signal measured value of WT; chemiluminescence signal measured values of WT, T119M and V30M samples versus blank [7]: higher than the signal measured value of the blank; signal measured value of V30M sample relative to WT sample [8]: lower than the signal measured value of WT

**Q.** With Biotin-PEG8-Thyroxine [Probe C1] as the compound, how does the “signal measured value of T119M sample relative to WT sample” value [9] read?
**A.** The value was “higher than the signal measured value of WT”.

**Q.** What about the “chemiluminescence signal measured values of WT, T119M and V30M samples versus blank” value [2] of the same compound?
**A.** The value was “higher than the signal measured value of the blank”.

**Q.** And the “signal measured value of V30M sample relative to WT sample” value [10]?
**A.** The value was “lower than the signal measured value of WT”.
